Laboratory results published in patent US20140303092A1 (CHIMERIX, INC., priority 2011, published 2014).

Assay: Study HDP-CDV-201: safety and tolerability (adverse events, laboratory abnormalities, discontinuations)
Format: in vivo, human (adult allogeneic HSCT recipients)
Procedure: Clinical Studies of HDP-CDV were performed and described in detail in the following Examples. For example, HDP-CDV-201 is a placebo-controlled, dose-escalating trial in HSCT CMV (R+) recipients, evaluating the ability of HDP-CDV to prevent or control CMV infection was carried out. Five cohorts were established in which participants or subjects received either placebo or the HDP-CDV orally, in doses ranging from 40 mg weekly (QW) to 200 mg twice weekly (BIW). Subjects who were post-HSCT were enrolled at the time of engraftment and randomized to HDP-CDV or placebo (3 to 1 ratio) and received blinded therapy until approximately 100 day post-transplantation. HDP-CDV doses were 40 mg QW, 100 mg QW, 200 mg QW, 200 mg BIW and 100 mg BIW. Escalation to the next dose was decided by the data monitoring committee after review of the safety data from the previous Cohort. Subjects who developed CMV disease or CMV infection requiring pre-emptive therapy with local standard of care were discontinued from blinded therapy and followed for 4 weeks. Subjects who completed treatment with blinded therapy were followed for 8 weeks post-therapy.
Data from Study HDP-CDV-201 also provided characterization of the safety and tolerability profile of HDP-CDV when administered for the prevention or control of CMV infection in high risk (R^+) post-HSCT adult subjects.
The Safety population (SAFETY) included all randomized subjects who took at least one dose of study treatment. This population was used to summarize safety outcomes based on the treatment actually received, in cases where a subject was treated contrary to the randomization schedule.
The safety and tolerability profile of HDP-CDV, including subject demographics and Baseline characteristics; the AE profile; and laboratory abnormalities of interest were analyzed in the cohorts followed in this investigation.
Subjects completing the treatment period received a full course of study medication; those completing the entire study attended visits through 8 weeks of follow up. Subjects who discontinued treatment may have done so for protocol specified reasons (e.g. development of clinically significant CMV infection requiring preemptive treatment with excluded anti-CMV medications) or for other reasons (e.g., withdrawal, adverse events, loss to follow-up). The disposition of subjects in Study HDP-CDV-201 during the double-blind, placebo-controlled treatment period (through Week 11) is listed by dosing Cohort in TABLE 23.
Adverse events were examined by severity to ensure that all safety signals were identified in this study population. Because of the frequency of events in HSCT recipients, particular attention was given to evaluation of Grade 3 […], 4 (severe), and 5 (fatal) adverse events.
Only those preferred terms for which at least one Grade 3 or higher event was experienced in any treatment group are listed. Cytomegalovirus-related AEs are excluded from this analysis.
HDP-CDV is a lipid conjugate of CDV. Because CDV is known to have adverse effects on renal function and bone marrow, decreased GFR and persistent neutropenia were identified as AEs of special interest. Key renal and hematological (TABLE 30) laboratory parameters were measured and listed below by Study HDP-CDV-201 treatment groups. TABLE 30 includes abnormal levels of serum creatinine, neutrophils, platelets, WBCs, and hemoglobin and includes data at Screening and during the treatment period.
A common metric for unit based dosing of medications is by weight (mg/kg). When the distribution of weights was examined for all subjects participating in the study, the median was 78 kg and the lower 25th percentile weight was approximately 65 kg, which translates to a cut-off of ˜3 mg/kg for a 200 mg total weekly dose. Based upon this approach, a cut-off of 3 mg/kg was used to assess the frequency of diarrhea and associated GI AEs reported for the subjects in Cohorts 3 or 4a (TABLE 40).

[1] = Cohort 2, 100 mg QW, through Week 11

SMILES: CCCCCCCCCCCCCCCCOCCCOP(=O)(O)COC(CO)Cn1ccc(N)nc1=O (stereo not drawn) [HDP-CDV]
- Alkaline Phosphatase (Screening) >2.5-5.0 × ULN, subjects (Cohort 2, 100 mg QW): 0
- Alkaline Phosphatase (Screening) >5.0-20.0 × ULN, subjects (Cohort 2, 100 mg QW): 0
- Alkaline Phosphatase (Screening) >20.0 × ULN, subjects (Cohort 2, 100 mg QW): 0
- Alkaline Phosphatase (Screening) >ULN-[…] ULN, subjects (Cohort 2, 100 mg QW): 6 (22.2%)
- Alkaline Phosphatase (any time during therapy) >2.5-5.0 × ULN, subjects (Cohort 2, 100 mg QW): 1 (3.7%)
- Alkaline Phosphatase (any time during therapy) >5.0-20.0 × ULN, subjects (Cohort 2, 100 mg QW): 1 (3.7%)
- Alkaline Phosphatase (any time during therapy) >20.0 × ULN, subjects (Cohort 2, 100 mg QW): 0
- Alkaline Phosphatase (any time during therapy) >ULN-[…] ULN, subjects (Cohort 2, 100 mg QW): 7 (25.9%)
- GI AE Leading to Study Drug Discontinuation: Abdominal pain, subjects (Cohort 2, 100 mg QW): 0
- GI AE Leading to Study Drug Discontinuation: Diarrhoea, subjects (Cohort 2, 100 mg QW): 0
- GI AE Leading to Study Drug Discontinuation: Dyspepsia, subjects (Cohort 2, 100 mg QW): 0
- GI AE Leading to Study Drug Discontinuation: Nausea, subjects (Cohort 2, 100 mg QW): 0
- GI AE Leading to Study Drug Discontinuation: Vomiting, subjects (Cohort 2, 100 mg QW): 1 (3.7%)
- GI AEs Leading to Study Drug Discontinuation: Total subjects discontinued (Cohort 2, 100 mg QW): 1 (3.7%)
- Gastrointestinal AE Abdominal discomfort, subjects (Cohort 2, 100 mg QW): 1 (3.7%)
- Gastrointestinal AE Abdominal distention, subjects (Cohort 2, 100 mg QW): 2 (7.4%)
- Gastrointestinal AE Abdominal pain upper, subjects (Cohort 2, 100 mg QW): 2 (7.4%)
- Gastrointestinal AE Abdominal pain, subjects (Cohort 2, 100 mg QW): 2 (7.4%)
- Gastrointestinal AE Constipation, subjects (Cohort 2, 100 mg QW): 0
- Gastrointestinal AE Diarrhoea, subjects (Cohort 2, 100 mg QW): 8 (29.6%)
- Gastrointestinal AE Diverticulum intestinal haemorragic, subjects (Cohort 2, 100 mg QW): 0
- Gastrointestinal AE Dyspepsia, subjects (Cohort 2, 100 mg QW): 2 (7.4%)
- Gastrointestinal AE Dysphagia, subjects (Cohort 2, 100 mg QW): 1 (3.7%)
- Gastrointestinal AE Epigastric discomfort, subjects (Cohort 2, 100 mg QW): 1 (3.7%)
- Gastrointestinal AE Flatulence, subjects (Cohort 2, 100 mg QW): 1 (3.7%)
- Gastrointestinal AE GERD, subjects (Cohort 2, 100 mg QW): 4 (14.8%)
- Gastrointestinal AE Gastritis, subjects (Cohort 2, 100 mg QW): 1 (3.7%)
- Gastrointestinal AE Haematochezia, subjects (Cohort 2, 100 mg QW): 0
- Gastrointestinal AE Haemorroids, subjects (Cohort 2, 100 mg QW): 0
- Gastrointestinal AE Large intestinal ulcer, subjects (Cohort 2, 100 mg QW): 0
- Gastrointestinal AE Nausea, subjects (Cohort 2, 100 mg QW): 5 (18.5%)
- Gastrointestinal AE Odynophagia, subjects (Cohort 2, 100 mg QW): 0
- Gastrointestinal AE Oesophagitis, subjects (Cohort 2, 100 mg QW): 0
- Gastrointestinal AE Retching, subjects (Cohort 2, 100 mg QW): 1 (3.7%)
- Gastrointestinal AE Vomiting, subjects (Cohort 2, 100 mg QW): 6 (22.2%)
- Hepatobiliary clinical AE Cholelithiasis, subjects (Cohort 2, 100 mg QW): 0
- Hepatobiliary clinical AE Hepatomegaly, subjects (Cohort 2, 100 mg QW): 0
- Hepatobiliary clinical AE Hyperbilirubinaemia, subjects (Cohort 2, 100 mg QW): 0
- Hepatobiliary clinical AE Jaundice, subjects (Cohort 2, 100 mg QW): 0
- Hepatobiliary clinical AE Liver injury, subjects (Cohort 2, 100 mg QW): 0
- Intensity of Gastrointestinal AEs, Grade 1, subjects (Cohort 2, 100 mg QW): 6 (22.2%)
- Intensity of Gastrointestinal AEs, Grade 2, subjects (Cohort 2, 100 mg QW): 10 (37.0%)
- Intensity of Gastrointestinal AEs, Grade 3, subjects (Cohort 2, 100 mg QW): 1 (3.7%)
- Intensity of Gastrointestinal AEs, Grade 4, subjects (Cohort 2, 100 mg QW): 0
- Intensity of Gastrointestinal AEs, Grade 5, subjects (Cohort 2, 100 mg QW): 0
- Proportion of Subjects with Stage 3 or 4 Gut GVHD (Cohort 2, 100 mg QW): 0%
- Serum ALT level, Median fold increase from Baseline at Follow-up Week 1 (Cohort 2, 100 mg QW): 1.50 fold
- Serum ALT level, Median fold increase from Baseline at Follow-up Week 4 (Cohort 2, 100 mg QW): 0.96 fold
- Serum ALT level, Peak Median fold increase from Baseline (Cohort 2, 100 mg QW): 1.53 fold
- Subjects completed study (Cohort 2, 100 mg QW): 14 (51.9%) n (%)
- Total Bilirubin (Screening) >1-[…] ULN, subjects (Cohort 2, 100 mg QW): 1 (3.8%)
- Total Bilirubin (Screening) >1.5-3 × ULN, subjects (Cohort 2, 100 mg QW): 1 (3.8%)
- Total Bilirubin (Screening) >3-10 × ULN, subjects (Cohort 2, 100 mg QW): 0
- Total Bilirubin (Screening) >10 × ULN, subjects (Cohort 2, 100 mg QW): 0
- Total Bilirubin (any time during therapy) >1-[…] ULN, subjects (Cohort 2, 100 mg QW): 0
- Total Bilirubin (any time during therapy) >1.5-3 × ULN, subjects (Cohort 2, 100 mg QW): 1 (3.7%)
- Total Bilirubin (any time during therapy) >3-10 × ULN, subjects (Cohort 2, 100 mg QW): 0
- Total Bilirubin (any time during therapy) >10 × ULN, subjects (Cohort 2, 100 mg QW): 0
- Abdominal pain leading to study drug withdrawal (Cohort 2, 100 mg QW, N = 27): 0%
- All AEs leading to withdrawal (Cohort 2, 100 mg QW, N = 27): 9 (33.3%)
- Diarrhoea leading to study drug withdrawal (Cohort 2, 100 mg QW, N = 27): 0%
- Dyspepsia leading to study drug withdrawal (Cohort 2, 100 mg QW, N = 27): 0%
- Nausea leading to study drug withdrawal (Cohort 2, 100 mg QW, N = 27): 0%
- TEAE ALT increased (Cohort 2, 100 mg QW, N = 27): 1 (3.7%) n (%)
- TEAE AST increased (Cohort 2, 100 mg QW, N = 27): 1 (3.7%) n (%)
- TEAE Abdominal pain (Cohort 2, 100 mg QW, N = 27): 2 (7.4%) n (%)
- TEAE Abdominal pain, Upper (Cohort 2, 100 mg QW, N = 27): 2 (7.4%) n (%)
- TEAE Acute GVHD (Cohort 2, 100 mg QW, N = 27): 7 (25.5%) n (%)
- TEAE Acute Myeloid Leukemia recurrent (Cohort 2, 100 mg QW, N = 27): 0 n (%)
- TEAE Acute Renal Failure (Cohort 2, 100 mg QW, N = 27): 0 n (%)
- TEAE Anxiety (Cohort 2, 100 mg QW, N = 27): 3 (11.1%) n (%)
- TEAE Arthralgias (Cohort 2, 100 mg QW, N = 27): 3 (11.1%) n (%)
- TEAE Back Pain (Cohort 2, 100 mg QW, N = 27): 2 (7.4%) n (%)
- TEAE Blood lactate dehydrogenase increased (Cohort 2, 100 mg QW, N = 27): 1 (3.7%) n (%)
- TEAE Creatinine increased (Cohort 2, 100 mg QW, N = 27): 5 (18.5%) n (%)
- TEAE Cytomegalovirus viremia (Cohort 2, 100 mg QW, N = 27): 4 (14.8%) n (%)
- TEAE Decreased appetite (Cohort 2, 100 mg QW, N = 27): 5 (18.5%) n (%)
- TEAE Diarrhoea (Cohort 2, 100 mg QW, N = 27): 8 (29.6%) n (%)
- TEAE Dysgeusia (Cohort 2, 100 mg QW, N = 27): 1 (3.7%) n (%)
- TEAE Fatigue (Cohort 2, 100 mg QW, N = 27): 3 (11.1%) n (%)
- TEAE GI Reflux Disease (Cohort 2, 100 mg QW, N = 27): 4 (14.8%) n (%)
- TEAE Gamma-glutamyltransferase increased (Cohort 2, 100 mg QW, N = 27): 1 (3.7%) n (%)
- TEAE Generalized oedema (Cohort 2, 100 mg QW, N = 27): 0 n (%)
- TEAE Hyperbilirubinaemia (Cohort 2, 100 mg QW, N = 27): 0 n (%)
- TEAE Hyperglycaemia (Cohort 2, 100 mg QW, N = 27): 1 (3.7%) n (%)
- TEAE Hyperkalemia (Cohort 2, 100 mg QW, N = 27): 1 (3.7%) n (%)
- TEAE Hypocalcaemia (Cohort 2, 100 mg QW, N = 27): 0 n (%)
- TEAE Hypokalaemia (Cohort 2, 100 mg QW, N = 27): 2 (7.4%) n (%)
- TEAE Hyponatraemia (Cohort 2, 100 mg QW, N = 27): 1 (3.7%) n (%)
- TEAE Increased leukocytosis (Cohort 2, 100 mg QW, N = 27): 0 n (%)
- TEAE Insomnia (Cohort 2, 100 mg QW, N = 27): 2 (7.4%) n (%)
- TEAE Liver function test abnormal (Cohort 2, 100 mg QW, N = 27): 1 (3.7%) n (%)
- TEAE Malnutrition (Cohort 2, 100 mg QW, N = 27): 0 n (%)
- TEAE Nausea (Cohort 2, 100 mg QW, N = 27): 5 (18.5%) n (%)
- TEAE Neutropenia (Cohort 2, 100 mg QW, N = 27): 4 (14.8%) n (%)
- TEAE Oedema peripheral (Cohort 2, 100 mg QW, N = 27): 5 (18.5%) n (%)
- TEAE Oral Candidiasis (Cohort 2, 100 mg QW, N = 27): 0 n (%)
- TEAE Pneumonia (Cohort 2, 100 mg QW, N = 27): 2 (7.4%) n (%)
- TEAE Pyrexia (Cohort 2, 100 mg QW, N = 27): 1 (3.7%) n (%)
- TEAE Recurrent flatulence (Cohort 2, 100 mg QW, N = 27): 1 (3.7%) n (%)
- TEAE Renal Failure (Cohort 2, 100 mg QW, N = 27): 2 (7.4%) n (%)
- TEAE Staphylococcal Bacteremia (Cohort 2, 100 mg QW, N = 27): 1 (3.7%) n (%)
- TEAE Thrombocytopenia (Cohort 2, 100 mg QW, N = 27): 3 (11.1%) n (%)
- TEAE Tremor (Cohort 2, 100 mg QW, N = 27): 3 (11.1%) n (%)
- TEAE Vomiting (Cohort 2, 100 mg QW, N = 27): 6 (22.2%) n (%)
- Vomiting leading to study drug withdrawal (Cohort 2, 100 mg QW, N = 27): 1 (3.7%)
- All AEs, Grade 5 (deaths) (Cohort 2, 100 mg QW, N = 27, entire study duration): 0%
- Proportion of Subjects with Grade 3 Diarrhea (Cohort 2, 100 mg QW, no Grade 4 or 5 diarrhea in any Cohort): 0%
- Subjects completed treatment [1]: 18 (66.7%) n (%)
- Subjects who permanently discontinued treatment [1]: 9 (33.3%) n (%)
- Grade of hepatobiliary AE acute liver injury, subject 3007 (Cohort 3): 3
